Test results as given in paper PMC8706783 (Pharmaceutics, 2021).
pIC50: −log10 of the molar value.

Key:
[1] = target: T1, CYP1A2 (Homo sapiens, UniProt P05177); assay: Enzyme inhibition assay, CYP1A2
T1 sequence (P05177 1-516): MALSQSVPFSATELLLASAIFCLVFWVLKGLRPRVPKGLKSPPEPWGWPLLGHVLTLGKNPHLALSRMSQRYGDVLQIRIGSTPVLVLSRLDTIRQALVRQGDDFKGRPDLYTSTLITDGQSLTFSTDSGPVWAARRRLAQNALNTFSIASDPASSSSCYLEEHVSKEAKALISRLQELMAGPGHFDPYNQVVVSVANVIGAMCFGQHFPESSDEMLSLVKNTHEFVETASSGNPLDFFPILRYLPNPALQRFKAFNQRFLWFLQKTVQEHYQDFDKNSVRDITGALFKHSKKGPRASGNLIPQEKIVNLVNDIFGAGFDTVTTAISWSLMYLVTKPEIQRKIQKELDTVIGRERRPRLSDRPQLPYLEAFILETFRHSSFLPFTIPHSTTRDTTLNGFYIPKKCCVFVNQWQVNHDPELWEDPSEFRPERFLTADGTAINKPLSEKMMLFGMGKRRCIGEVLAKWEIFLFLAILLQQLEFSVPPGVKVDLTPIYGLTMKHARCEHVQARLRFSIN

[2] = target: T2, CYP1A1 (Homo sapiens, UniProt P04798); assay: Enzyme inhibition assay, CYP1A1; assay type: in vitro ADME; design: purchased Xenotech LLC; settings: Recombinant CYP1A1; phenacetin-O-deethylation
T2 sequence (P04798 1-512): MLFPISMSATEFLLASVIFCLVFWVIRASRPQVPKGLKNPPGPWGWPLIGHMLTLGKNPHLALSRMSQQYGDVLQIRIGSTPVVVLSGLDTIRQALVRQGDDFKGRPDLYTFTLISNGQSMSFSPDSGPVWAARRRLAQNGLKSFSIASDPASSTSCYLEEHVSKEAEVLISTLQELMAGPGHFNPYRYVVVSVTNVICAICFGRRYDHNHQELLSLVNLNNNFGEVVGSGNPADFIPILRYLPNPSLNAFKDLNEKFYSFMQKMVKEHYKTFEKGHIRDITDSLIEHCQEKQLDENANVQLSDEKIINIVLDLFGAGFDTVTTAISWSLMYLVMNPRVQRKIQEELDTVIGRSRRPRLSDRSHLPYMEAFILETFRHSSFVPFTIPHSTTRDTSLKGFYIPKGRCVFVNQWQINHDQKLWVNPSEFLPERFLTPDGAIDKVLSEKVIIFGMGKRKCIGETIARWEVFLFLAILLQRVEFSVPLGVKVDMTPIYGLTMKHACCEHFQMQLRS

[3] = target: T3, UGT1A4 (Homo sapiens, UniProt P22310); assay: Enzyme inhibition assay, UGT1A4
T3 sequence (P22310 29-534): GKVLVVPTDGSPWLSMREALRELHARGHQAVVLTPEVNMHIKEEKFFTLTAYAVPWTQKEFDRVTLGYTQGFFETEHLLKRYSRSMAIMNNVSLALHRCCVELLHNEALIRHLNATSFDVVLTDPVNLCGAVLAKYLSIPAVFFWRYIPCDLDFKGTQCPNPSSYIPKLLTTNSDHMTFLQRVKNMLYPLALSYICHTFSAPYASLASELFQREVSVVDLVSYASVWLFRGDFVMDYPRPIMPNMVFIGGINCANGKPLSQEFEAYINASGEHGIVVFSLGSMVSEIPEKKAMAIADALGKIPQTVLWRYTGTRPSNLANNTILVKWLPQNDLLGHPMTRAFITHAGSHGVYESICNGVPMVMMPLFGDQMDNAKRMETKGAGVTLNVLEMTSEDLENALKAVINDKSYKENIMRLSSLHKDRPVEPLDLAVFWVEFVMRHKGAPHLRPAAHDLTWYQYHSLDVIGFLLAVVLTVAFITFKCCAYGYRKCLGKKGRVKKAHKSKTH

[4] = target: T4, UGT1A3 (Homo sapiens, UniProt P35503); assay: Enzyme inhibition assay, UGT1A3; assay type: in vitro ADME; design: from tissue; settings: HLM; UGT1A3 chenodeoxycholic acid 24 O-glucuronidation
T4 sequence (P35503 29-534): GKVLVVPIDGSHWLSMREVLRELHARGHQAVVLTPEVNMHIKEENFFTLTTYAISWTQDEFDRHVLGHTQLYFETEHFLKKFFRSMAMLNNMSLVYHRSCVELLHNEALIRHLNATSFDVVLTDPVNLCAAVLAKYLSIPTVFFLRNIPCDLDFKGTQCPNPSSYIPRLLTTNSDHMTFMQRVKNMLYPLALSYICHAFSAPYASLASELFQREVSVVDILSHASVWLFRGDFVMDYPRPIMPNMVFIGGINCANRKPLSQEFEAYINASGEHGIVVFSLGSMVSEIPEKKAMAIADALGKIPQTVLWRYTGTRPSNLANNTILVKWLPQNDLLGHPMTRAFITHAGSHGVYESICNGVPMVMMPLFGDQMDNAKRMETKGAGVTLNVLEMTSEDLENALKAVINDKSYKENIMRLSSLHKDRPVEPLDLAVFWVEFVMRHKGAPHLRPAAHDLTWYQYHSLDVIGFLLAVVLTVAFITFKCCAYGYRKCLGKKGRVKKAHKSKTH

[5] = target: T5, UGT1A6 (Homo sapiens, UniProt P19224); assay: Enzyme inhibition assay, UGT1A6; assay type: in vitro ADME; settings: Recombinant UGT1A6; 4-methylumbelliferone O-glucuronidation
T5 sequence (P19224 27-532): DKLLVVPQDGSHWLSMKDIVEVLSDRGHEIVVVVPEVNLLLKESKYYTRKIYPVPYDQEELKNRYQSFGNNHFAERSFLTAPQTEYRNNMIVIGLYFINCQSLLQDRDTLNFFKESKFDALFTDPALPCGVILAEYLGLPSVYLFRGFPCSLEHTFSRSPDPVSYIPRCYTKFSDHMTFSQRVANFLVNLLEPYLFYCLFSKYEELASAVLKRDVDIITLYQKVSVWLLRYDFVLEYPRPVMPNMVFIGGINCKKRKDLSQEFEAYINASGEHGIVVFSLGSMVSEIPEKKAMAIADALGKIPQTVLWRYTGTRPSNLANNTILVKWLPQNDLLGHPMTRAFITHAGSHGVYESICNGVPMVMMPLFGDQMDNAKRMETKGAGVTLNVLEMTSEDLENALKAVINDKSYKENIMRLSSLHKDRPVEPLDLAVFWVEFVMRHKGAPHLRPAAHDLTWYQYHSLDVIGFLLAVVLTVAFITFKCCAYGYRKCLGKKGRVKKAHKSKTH

Row | Structure (SMILES) | pIC50 [1] | pIC50 [2] | pIC50 [3] | pIC50 [4] | pIC50 [5]
1 | Clc1ccc(COC(Cn2ccnc2)c2ccc(Cl)cc2Cl)c(Cl)c1 (stereo not shown) [MIC, miconazole] | 5.29 | 6.37 | 4.58 | 4.87 | 4.77
2 | Cc1cc(C)c(Nc2ccnc(Nc3ccc(C#N)cc3)n2)c(C)c1 [DPV, Dapivirine] | 4.98 | 6.30 | 5.02 | 4.77 | 4.71
